Assay results published in patent US7456220B2, “Immunodulatory compositions and methods of use thereof” (priority 1999, dated 2008).

System: gentamicin resistant Escherichia coli
Assay: Rat sepsis model, mortality vs. saline control (Example 15)
Format: in vivo, Wistar rats
Conditions: Gentamicin 2 mg, gel 2 ml I.M., 24 hours before challenge, Group D mixture, timing not given
Procedure: The model system utilizes Wistar rats surgically implanted with an inoculum of intestinal contents from other rats. The inoculum is prepared in a manner which simulates the microbiologic parameters of the human colon. This is accomplished by placing rats on a diet of lean ground beef for two weeks, and then harvesting, homogenizing and freezing aliquots of prepared intestinal contents for subsequent use. The clinical end points for evaluation in this model are mortality, while microbiologic end points include blood and peritoneal cultures. The general experimental design and methods are as follows.
Male, Wistar, virus antibody free (VAF) rats (Charles River Laboratories, Wilmington, Mass.), weighing 175-200 grams, are utilized for all experiments. All animals are housed, five per cage, within a VAF facility, and given food and water ad libitum, except for those animals used for preparation of the meat-fed cecal inoculum (see below). Animal experiments are carried out according to the guidelines of the Harvard Medical Area Standing Committee on Animals, in facilities accredited by the American Association for the Accreditation of Laboratory Animal Care.
The innoculum for this study is prepared as described in A. Onderdonk et al., Experimental intra-abdominal abscesses in rats; quantitative bacteriology of infected animals. Infection and Immunity, 10:1256-9 (1974); and A. Onderdonk et al., Experimental intra-abdominal abscesses in rats: development of animal model. Infection and Immunity, 10:1256-1259 (1974). Briefly, cecal contents from meat-fed rats are combined with peptone-yeast-glucose broth to form a slurry. This slurry is filtered through gauze to remove large particulate material, aliquoted and frozen at −80° C. until used. Preliminary testing of this inoculum is performed to determine the proper dilution of the inoculum to yield a mortality of 60%-70% in an untreated group.
Animals are anesthetized with Nembutal (50 mg/Kg), and prepared for surgical implantation of the inoculum by shaving the abdomen and applying an iodine solution. A 3-4 cm midline incision is made through the skin and anterior abdominal wall, and a gelatin capsule containing 0.5 mL of the inoculum is inserted into the pelvic region. The incision is closed with one 3-0 suture, and the animals are observed four times per day for the first 48 hours, and every eight hours thereafter. Visibly moribund animals are humanely sacrificed with CO2.
Groups of twenty animals each are implanted with the inoculum described above. For each experiment, a control group of sham-treated animals is employed. For experiments in which quantitative blood and peritoneal cultures are obtained, sufficient additional animals are implanted to allow for such cultures, but mortality in these groups is not included in the clinical outcome calculations, due to the additional manipulation of the animals. Surviving animals from each group are sacrificed after seven days.
A comparison of groups with regard to mortality is made by chi-square analysis as supplied on commercially available statistical software (Instat, GraphPad Software, San Diego, Calif.). A comparison group mean bacterial count is made using Student's T test.
Animals were divided into Groups A, B, C and D, with each Group containing 15 animals. All groups were challenged with 2.629 ml gentamicin resistant Escherichia coli, 0.32 ml Dextran Sulfate, and 29.051 ml Peptone Yeast Glucose. Group A was treated 2 hours after challenge, while Groups B and C were treated 24 hours before challenge. Group A was treated with 2 ml saline I.M.; Group B was treated with 2 mg Gentamicin; Group C was treated with 2 ml HA/CMC/EDC gel I.M.; and Group D was treated with a mixture of Gentamicin and HA/CMC/EDC gel.
The animals were held for 48 hours, and assessed for mortality vs. the saline control.

Gentamicin
% mortality (24 hr): 23.1%
mortalities (M) (24 hr): 3
surviving animals (A) (24 hr): 10
% mortality (48 hr): 38.5%
mortalities (M) (48 hr): 2
surviving animals (A) (48 hr): 8
% mortality (Total): 38.5%
mortalities (M) (Total): 5
surviving animals (A) (Total): 8
